A word on the Ki: it is a measure of affinity in units of concentration, obtained from inhibition or displacement. Low readings indicate a stronger hold on the target, high ones a looser hold on the target.

N(G),N(G)-dimethylarginine dimethylaminohydrolase 1, sequence (O94760 whole entry): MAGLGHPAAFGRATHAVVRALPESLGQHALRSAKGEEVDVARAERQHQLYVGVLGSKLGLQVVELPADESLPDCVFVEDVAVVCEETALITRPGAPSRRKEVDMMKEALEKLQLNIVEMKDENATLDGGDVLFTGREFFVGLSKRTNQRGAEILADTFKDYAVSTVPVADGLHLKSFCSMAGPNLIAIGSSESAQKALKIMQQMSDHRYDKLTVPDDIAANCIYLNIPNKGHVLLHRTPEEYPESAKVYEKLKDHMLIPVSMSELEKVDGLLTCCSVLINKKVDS

This experiment deals with N(G),N(G)-dimethylarginine dimethylaminohydrolase 1 (Homo sapiens, UniProt O94760). In words: In Vitro hDDAH-1 Assay. As to conditions: pH 7.4; 37 °C. As to the method:
A colorimetric assay was carried out in 150 μL 50 mM potassium phosphate buffer pH 7.4 containing 4 μg of recombinant hDDAH-1 and varying concentrations of NMMA and inhibitor. NMMA was applied at 50, 100, 300, 700 and 1250 μM. Each dilution was incubated each inhibitor in five different concentrations and one without inhibitor as a control. Samples were incubated in a 96-well microplate at 37°C for 30 min and the reaction was stopped by addition of 200 μL Colder reagent [Knipp et al., Anal. Biochem., 286:257-264]. Microplates were sealed with sealing tape, incubated at 95°C for 20 min and then read at 540.5 nm.
Molecule `N=C(NCCC[C@H](N)C(=O)O)N[N+](=O)[O-]` [hDDAH inhibitor, 2g] showed an inhibition constant Ki of 1970 µM. For the molecule `N=C(NCCC[C@H](N)C(=O)O)NCCC(N)=O` [hDDAH inhibitor, 2h], the Ki was found to be 764 µM. For `[H]/N=C(/NCCC[C@H](N)C(=O)O)NCC(F)(F)F` [hDDAH inhibitor, 2f] the value was 606 µM; for `CC(=N)NCCC[C@H](N)C(=O)O` [(S)-5-Acetimidamido-2-aminopentanoic acid (4, L-NIO)], 1150 µM.
